Experimental data from patent US8546392B2, “17Beta-hydroxysteroid dehydrogenase type 1 inhibitors for the treatment of hormone-related diseases” (Universitaet des Saarlandes, priority 2008, dated 2013).

Biological target: 17β-HSD1 (Homo sapiens (Human), UniProt P14061)
Assay: 17β-HSD1 test assay (recombinant protein from Sf9 insect cells, 3H-estrone/NADPH)
Type: biochemical
Conditions: for inhibition at 1 µM: read-out: HSD 1 μM (% inhibition of HSD1), inhibitor 1 μM; for inhibition at 0.1 µM: read-out: HSD1 100 nM (% inhibition), inhibitor 100 nM
Experimental: Recombinant protein obtained from Sf9 insect cells (0.1 μg/ml) is incubated with 20 mM KH2PO4, pH 7.4, 30 nM ^3H-estrone and 1 mM NADPH for 30 min at RT in the presence of the potential inhibitor in a concentration of 1 μM or 100 nM. The stock solutions of the compounds are prepared in DMSO (dimethylsulfoxide) so that the final concentration of DMSO in the sample is 1%. After the prescribed incubation time, the reaction is quenched by adding trichloroacetic acid (10% final concentration). The samples are centrifuged in microtitration plates at 400 rpm for 10 min, and the supernatants are charged on a reversed-phase HPLC equipped with a Waters Symmetrie C18 column and Waters Sentry Guard column. The isocratic HPLC run is performed at RT with a flow rate of 1 ml/min and acetonitrile/water 48:52 as the eluent. The radioactivity was measured by means of a Packard Flow Scintillation Analyzer. […]

17β-HSD1, sequence (P14061 whole entry): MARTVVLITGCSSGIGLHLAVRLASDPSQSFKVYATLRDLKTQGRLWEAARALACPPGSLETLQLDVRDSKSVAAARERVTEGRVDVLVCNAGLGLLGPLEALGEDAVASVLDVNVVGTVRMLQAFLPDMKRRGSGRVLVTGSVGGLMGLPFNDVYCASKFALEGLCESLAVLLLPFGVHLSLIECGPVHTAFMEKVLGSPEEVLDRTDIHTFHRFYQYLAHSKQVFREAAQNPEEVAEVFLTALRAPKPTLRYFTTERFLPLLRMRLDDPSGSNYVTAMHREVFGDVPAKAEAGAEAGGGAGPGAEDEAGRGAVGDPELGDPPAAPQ

| Compound | inhibition at 1 µM | inhibition at 0.1 µM |
| --- | --- | --- |
| Oc1cccc(-c2cc3cc(O)ccc3[nH]2)c1 [Compound 1, 2-(3-Hydroxyphenyl)-1H-indol-5-ol] | < 10% | < 10% |
| Oc1ccc2cc(-c3ccccc3)ccc2c1 [Compound 2, 6-Phenylnaphthalene-2-ol] | < 10% | < 10% |
| Oc1cccc(-c2ccc3ccccc3c2)c1 [Compound 3, 3-Naphthalene-2-ylphenol] | 61% | 26% |
| Oc1ccc2cc(-c3cccnc3)ccc2c1 [Compound 4, 3-(6-hydroxy-2-naphthyl)pyridine] | 31.6% | < 10% |
| Oc1ccc2cc(-c3ccsc3)ccc2c1 [Compound 5] | < 10% | < 10% |
| Oc1ccc2cc(-c3cccs3)ccc2c1 [Compound 6] | < 10% | < 10% |
| O=C(O)c1cccc(-c2ccc3cc(O)ccc3c2)c1 [Compound 7, 3-(6-hydroxy-2-naphthyl)benzoic acid] | 75.8% | 36.3% |
| O=C(O)c1ccc(-c2ccc3cc(O)ccc3c2)cc1 [Compound 8, 4-(6-hydroxy-2-naphthyl)benzoic acid] | < 10% | < 10% |
| CC(=O)Nc1cccc(-c2ccc3cc(O)ccc3c2)c1 [Compound 9, N-[3-(6-hydroxy-2-naphthyl)phenyl]acetamide] | 18.5% | < 10% |
| OCc1cccc(-c2ccc3cc(O)ccc3c2)c1 [Compound 10, 6-[3-(hydroxymethyl)-phenyl]-2-naphthol] | < 10% | < 10% |
| OCc1ccc(-c2ccc3cc(O)ccc3c2)cc1 [Compound 11, 6-[4-(hydroxymethyl)phenyl]-2-naphthol] | 12.9% | < 10% |
| Oc1cccc(-c2ccc3cc(O)ccc3n2)c1 [Compound 12, 2-(3-Hydroxyphenyl)quinolin-6-ol] | 56.9% | 24% |
| Oc1cccc(-c2cnc3ccccc3c2)c1 [Compound 13, 3-(Quinolin-3-yl)phenol] | < 10% | < 10% |
| Oc1ccc(-c2cnc3ccccc3c2)cc1 [Compound 14, 4-(Quinolin-3-yl)phenol] | < 10% | < 10% |
| Oc1ccc(-c2cnc3cc(O)ccc3c2)cc1 [Compound 15, 3-(4-Hydroxyphenyl)quinolin-7-ol] | < 10% | < 10% |
| Oc1cccc(-c2cnc3cc(O)ccc3c2)c1 [Compound 16, 3-(3-Hydroxyphenyl)quinolin-7-ol] | 56.9% | 24% |
| Oc1cncc(-c2ccc3cc(O)ccc3c2)c1 [Compound 17, 5-(6-Hydroxynaphthalene-2-yl)pyridin-3-ol] | 57.7% | 30.3% |
| Oc1ccc2cc(-c3ccccc3O)ccc2c1 [Compound 18, 6-(2-Hydroxyphenyl)-2-naphthol] | < 10% | < 10% |
| Oc1ccc(-c2ccc3cc(O)ccc3c2)cc1 [Compound 20, 6-(4-Hydroxyphenyl)-2-naphthol] | < 10% | < 10% |
| Oc1ccc(-c2ccc3c(O)cccc3c2)cc1 [Compound 21, 6-(4-Hydroxyphenyl)-1-naphthol] | < 10% | < 10% |
| O=[N+]([O-])c1cccc(-c2ccc3cc(O)ccc3c2)c1 [Compound 22, 6-(3-Nitrophenyl)-naphthalene-2-ol] | < 10% | < 10% |
| Nc1cccc(-c2ccc3cc(O)ccc3c2)c1 [Compound 23, 6-(3-Aminophenyl)-naphthalen-2-ol] | < 10% | < 10% |
| Oc1cccc(-c2ccc3c(O)cccc3c2)c1 [Compound 24, 6-(3-Hydroxyphenyl)-1-naphthol] | < 10% | < 10% |
